Data as given in publication PMC8822125, “RW-BP100-4D, a Promising Antimicrobial Candidate With Broad-Spectrum Bactericidal Activity” (Frontiers in Microbiology, 2022).
Converted amounts (≈) assume the structure as drawn. Where a SMILES comes first, the peptide text is derived from it.

What was measured:
RAW264.7 cells = details: peptide 150 μg/mL, 24 h, WST-1, mean ± SD, three repeats
[1] = system: Escherichia coli ATCC25922; details: Table 1; broth microdilution CLSI M100-S25, MH broth, 37°C, 18 h, three independent repeats
[2] = system: Staphylococcus aureus ATCC29213; assay: MIC/MBC, broth microdilution; format: cell-based; details: Table 1; broth microdilution CLSI M100-S25, MH broth, 37°C, 18 h, three independent repeats
MAC-T cells = details: peptide 150 μg/mL, 24 h, WST-1, mean ± SD, three repeats
various microorganisms = assay: MIC/MBC, summary statements over several strains; format: cell-based; details: summary of Table 1
sheep red blood cells = sheep red blood cells in PBS, 37°C, 1 h, OD576, relative to melittin, mean ± SD, three repeats; for Hemolytic rate, 50 μg/mL: 50 μg/mL peptide; for Hemolytic rate, 100 μg/mL: 100 μg/mL peptide; for Hemolytic rate, 150 μg/mL: 150 μg/mL peptide; for Hemolytic rate, 300 μg/mL: 300 μg/mL peptide;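 for all read-outs here: hemolysis expressed in % from supernatant absorbance, with PBS-treated cells as 0% baseline and melittin as 100%, peptide mixed 1:1 with an 8% v/v erythrocyte suspension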

Structure (SMILES) | Cell survival rate, RAW264.7 (RAW264.7 cells) | MIC Escherichia coli ATCC25922 [1] | MIC Staphylococcus aureus ATCC29213 [2] | Cell survival rate, MAC-T (MAC-T cells) | MIC against S. aureus ATCC29213 and E. coli ATCC25922 (both strains together) (various microorganisms) | Hemolytic rate, 50 μg/mL (sheep red blood cells) | Hemolytic rate, 100 μg/mL (sheep red blood cells) | Hemolytic rate, 150 μg/mL (sheep red blood cells) | Hemolytic rate, 300 μg/mL (sheep red blood cells)
CC[C@H](C)[C@H](NC(=O)[C@H](CCCNC(=N)N)NC(=O)[C@@H](CCCNC(=N)N)NC(=O)[C@H](Cc1ccccc1)NC(=O)[C@H](CC(C)C)NC(=O)[C@H](CCCNC(=N)N)NC(=O)[C@@H](N)CCCNC(=N)N)C(=O)N[C@@H](CC(C)C)C(=O)N[C@@H](CCCNC(=N)N)C(=O)N[C@@H](Cc1c[nH]c2ccccc12)C(=O)N[C@@H](CC(C)C)C(N)=O [RW-BP100-5D] (HELM PEPTIDE1{R.R.L.F.[dR].R.I.L.R.W.L.[am]}$$$$V2.0) | 39.05 ± 1.65% | 6 µg/mL (≈ 3.79 µM) | 6 µg/mL (≈ 3.79 µM) | 77.84 ± 5.63% | 3 to 12 µg/mL | 1.26 ± 0.54% | 2.49 ± 0.72% | 29.72 ± 0.94% | 51.41 ± 4.64%
CC[C@H](C)[C@H](NC(=O)[C@H](CCCNC(=N)N)NC(=O)[C@H](CCCNC(=N)N)NC(=O)[C@H](Cc1ccccc1)NC(=O)[C@H](CC(C)C)NC(=O)[C@H](CCCNC(=N)N)NC(=O)[C@@H](N)CCCNC(=N)N)C(=O)N[C@@H](CC(C)C)C(=O)N[C@@H](CCCNC(=N)N)C(=O)N[C@H](Cc1c[nH]c2ccccc12)C(=O)N[C@@H](CC(C)C)C(N)=O [RW-BP100-10D] (HELM PEPTIDE1{R.R.L.F.R.R.I.L.R.[dW].L.[am]}$$$$V2.0) | 92.19 ± 6.32% | 50 µg/mL (≈ 31.6 µM) | 50 µg/mL (≈ 31.6 µM) | 94.41 ± 4.26% |  | 0.31 ± 0.37% | 1.28 ± 0.19% | 19.20 ± 2.16% | 45.08 ± 4.70%
CC[C@H](C)[C@H](NC(=O)[C@H](CCCNC(=N)N)NC(=O)[C@H](CCCNC(=N)N)NC(=O)[C@H](Cc1ccccc1)NC(=O)[C@H](CC(C)C)NC(=O)[C@@H](CCCNC(=N)N)NC(=O)[C@@H](N)CCCNC(=N)N)C(=O)N[C@@H](CC(C)C)C(=O)N[C@@H](CCCNC(=N)N)C(=O)N[C@@H](Cc1c[nH]c2ccccc12)C(=O)N[C@@H](CC(C)C)C(N)=O [RW-BP100-2D] (HELM PEPTIDE1{R.[dR].L.F.R.R.I.L.R.W.L.[am]}$$$$V2.0) | 6.83 ± 5.69% | 12 µg/mL (≈ 7.58 µM) | 25 µg/mL (≈ 15.8 µM) | 63.07 ± 3.23% |  | 4.83 ± 1.08% | 5.99 ± 0.79% | 39.16 ± 1.75% | 62.12 ± 6.27%
CC[C@H](C)[C@H](NC(=O)[C@H](CCCNC(=N)N)NC(=O)[C@H](CCCNC(=N)N)NC(=O)[C@H](Cc1ccccc1)NC(=O)[C@@H](CC(C)C)NC(=O)[C@H](CCCNC(=N)N)NC(=O)[C@@H](N)CCCNC(=N)N)C(=O)N[C@@H](CC(C)C)C(=O)N[C@@H](CCCNC(=N)N)C(=O)N[C@@H](Cc1c[nH]c2ccccc12)C(=O)N[C@@H](CC(C)C)C(N)=O [RW-BP100-3D] (HELM PEPTIDE1{R.R.[dL].F.R.R.I.L.R.W.L.[am]}$$$$V2.0) | 7.69 ± 7.89% | 50 µg/mL (≈ 31.6 µM) | 25 µg/mL (≈ 15.8 µM) | 50.63 ± 2.36% |  | 3.49 ± 0.76% | 4.04 ± 0.20% | 38.13 ± 3.12% | 55.73 ± 5.27%
CC[C@H](C)[C@H](NC(=O)[C@H](CCCNC(=N)N)NC(=O)[C@H](CCCNC(=N)N)NC(=O)[C@H](Cc1ccccc1)NC(=O)[C@H](CC(C)C)NC(=O)[C@H](CCCNC(=N)N)NC(=O)[C@@H](N)CCCNC(=N)N)C(=O)N[C@@H](CC(C)C)C(=O)N[C@H](CCCNC(=N)N)C(=O)N[C@@H](Cc1c[nH]c2ccccc12)C(=O)N[C@@H](CC(C)C)C(N)=O [RW-BP100-9D] (HELM PEPTIDE1{R.R.L.F.R.R.I.L.[dR].W.L.[am]}$$$$V2.0) | 91.33 ± 5.63% | 25 µg/mL (≈ 15.8 µM) | 25 µg/mL (≈ 15.8 µM) | 92.50 ± 2.36% |  | 0.63 ± 0.24% | 1.53 ± 0.09% | 18.14 ± 0.20% | 45.18 ± 2.41%
